Assay results as given in patent publication US20130338457A1, “METHOD AND APPARATUS FOR DETECTING DISEASES ASSOCIATED WITH THE EYE” (THE REGENTS OF THE UNIVERSITY OF MICHIGAN, priority 2007, published 2013).

Tests used:
Assay type in all cases: cell-based
human retina cells = experiment: FA production in fresh human retina pieces ex vivo; conditions: FIG. 25; for FA production with apoptotic stimulus: human retina pieces
Protocol: (§1) To provide an in vitro correlate of the imaging method described above, studies were pursued of: RPE cells in vitro and fresh pieces of rat and human retina ex vivo. Both retinal fragments and RPE cells serve as good in vitro models of the human retina. To model the apoptotic events taking place in the eye, apoptotic stimuli (H2O2 and ceramide) were added to these samples. These stimuli are particularly judicious choices because both oxidative molecules and ceramide have been reported to be key mediators of retinal apoptosis.
(§2) At lethal levels, FA correlates with apoptosis measured by TUNEL and other assays.

[1] = test system: human retinal pigment epithelial (HRPE) cells; experiment: Flavoprotein autofluorescence (FA) measurement in cultured HRPE cells; conditions: for FA after exposure to pro-apoptotic agent: exposure for 2 hours, H2O2 0.2 mM, C2-ceramide 50 μM
Protocol: HRPE cells were isolated from donor eyes by enzymatic digestion as previously described. Briefly, the sensory retina was separated gently from the HRPE monolayer, and the HRPE cells were removed from Bruch's membrane using one hour incubation with papain. Isolated HRPE cells were grown into Falcon Primaria flasks in DMEM/F12 containing 10% fetal bovine serum (FBS), penicillin G (100 U ml-1), streptomycin sulfate (100 μg ml-1), and amphotericin B (0.25 μg ml-1) at 37° C. in a humidified incubator under 5% CO2. In all experiments, parallel assays were performed on the second to fourth passage of HRPE cells. HRPE cells were seeded into tissue culture 96-well assay plates (black walls with clear bottoms (Costar) at the same time and density from the same parent cultures, and grown in phenol red-free complete DMEM/F12 for at least 7 days. All experiments were repeated at least three times on different cell lines.
HRPE cells in 96-well plates were washed with Hanks' balanced salt solution (HBSS), containing Ca2+ and Mg2+, without phenol red. […] Other HRPE cells in 96-well plates were pre-incubated for 30 minutes with or without dihydroceramide C2 (50 μM), followed by stimulation with C2-ceramide (50 μM) for 2 hours in the presence and absence of the same inhibitor used during pre-incubation.
FA was measured with a photomicroscope equipped with narrow bandwidth excitation and emission filters of 465 nm and 535 nm, respectively.

rat neural retina cells = experiment: FA production in fresh rat retina pieces ex vivo; conditions: FIG. 26; for FA production with apoptotic stimulus: rat neural retina
Protocol: as §1, §2

human neural retina = experiment: Cell Death Detection ELISA of neural retinal apoptosis
Protocol: To evaluate neural retinal apoptosis, pieces of human neural retina were analyzed by using a Cell Death Detection […] kit. This photometric enzyme immunoassay provides the quantitative in vitro determination of cytoplasmic histone-associated DNA fragments (mono- and oligonucleosomes) after induced cell death (shown in FIG. 24).

Question: Which results are given for `CCCCCCCCCCCCC/C=C/[C@@H](O)[C@H](CO)NC(C)=O` [C2-ceramide]?
Answer: FA production with apoptotic stimulus (human retina cells): elevated flavoprotein autofluorescence (FA); FA after exposure to pro-apoptotic agent ([1]; HRPE cells): significantly elevated FA; FA production with apoptotic stimulus (rat neural retina cells): elevated flavoprotein autofluorescence (FA)

Question: With `c1ccc2c(c1)[I+]c1ccccc1-2` [DPI] as the molecule, how does the “Effect of toxins on FA signal” value [1] read?
Answer: Its value is “abrogate the FA signal”.

Question: How did the “Effect on hydrogen peroxide-induced FA production” value (human retina cells; human retina cells) turn out when `CC(=O)N[C@@H](CS)C(=O)O` [N-acetyl-cysteine] was run?
Answer: The value was “attenuated”.

Question: And the “Effect on hydrogen peroxide-induced FA elevations” value ([1]; HRPE cells, NAC 1 mM, 30 minutes pre-incubation)?
Answer: Its value is “completely blocked FA elevations”.

Question: And the “Effect on cell death by hydrogen peroxide” value (human neural retina; FIG. 24)?
Answer: Its value is “attenuated”.

Question: And the “Effect on hydrogen peroxide-induced FA production” value (rat neural retina cells; rat neural retina cells)?
Answer: Its value is “attenuated”.

Question: With `CCCCCCCCCCCCCCC[C@@H](O)[C@H](CO)NC(C)=O` [dihydroceramide C2] as the molecule, how does the “Effect on ceramide-induced FA increases” value ([1]; HRPE cells, dihydroceramide C2 50 μM, 30 minutes pre-incubation) read?
Answer: The value was “completely blocked FA increases”.

Question: What does the source list for `OO` [hydrogen peroxide]?
Answer: FA production with apoptotic stimulus (human retina cells): induced; FA production with apoptotic stimulus (human retina cells; listed as H2O2): elevated flavoprotein autofluorescence (FA); FA after exposure to pro-apoptotic agent ([1]; HRPE cells): significantly elevated FA; Neural retinal apoptosis, avarage (cytoplasmic histone-associated DNA fragments) (human neural retina; 6 hr, H2O2 200, NAC 1 mM, control 1.0000): 4.3610; Cell death induced by agent (human neural retina; FIG. 24): increased; FA production with apoptotic stimulus (rat neural retina cells): induced; FA production with apoptotic stimulus (rat neural retina cells; listed as H2O2): elevated flavoprotein autofluorescence (FA)
